# From patent publication US7462362B2, “Antifungal nail coat and method of use” (NexMed Holdings, Inc., priority 2003, dated 2008)
# Counter-ions that a name gives are not always drawn.
# Key:
# [1] = system: T. mentagrophytes, (ATCC 24953); test: Modified NCCLS M38-A broth microdilution MIC assay; format: cell-based, Trichophyton mentagrophytes
# Source text: The broth microdilution method was a modification of a NCCLS M38-A standard method for the susceptibility testing of conidium-forming filamentous fungi of the National Committee for Clinical Laboratory Standards (NCCLS). The modified method was developed at the Center for Medical Mycology, University Hospitals of Cleveland, Cleveland, Ohio, based on the method described in Jessup, et al., “Antifungal Susceptibility Testing of Dermatophytes: Establishing a Medium for Inducing Conidial Growth and Evaluation of Susceptibility of Clinical Isolates,” Journal of Clinical Microbiology, 38, 341-344, published by the American Society for Microbiology (2000), the disclosures of which are incorporated herein by reference. Based on a multicenter study of the reproducibility of the modified method for testing dermatophytes, adoption of the modified method as an amendment to the NCCLS M38-A standard has been proposed. […]
# Dermatophyte isolates are subcultured onto Potato Dextrose Agar (PDA) and incubated at a temperature of about 30° C. for a period of about 4 to about 5 days or until good conidiation is produced. […] The suspension is allowed to settle for about 5 to about 10 minutes and the conidia is counted using a hemocytometer. […]
# MIC assay was determined using the broth dilution procedure described in Example 8 performed in microtiter wells with RPMI 1604 as the diluent. […]
# [2] = system: T. mentagrophytes, (ATCC 24953); test: Agar diffusion plate assay, zone of inhibition (Example 9); format: cell-based, Trichophyton mentagrophytes; details: undiluted composition
# Source text: For the agar diffusion assay, the standardized inoculum of conidia is applied to the surface of a Potato Dextrose Agar plate and allowed to dry. Wells are then cut into the agar and the test composition is put into the wells and allowed to diffuse and antifungal activity is evidenced by zones of growth inhibition (i.e., area remaining clear, lacking growth) on the surface of the plates measured in millimeters (mm) diameter.
# The fungicidal activity of terbinafine hydrochloride against the dermatophytic fungi, T. mentagrophytes, (ATCC 24953), is illustrated in the modified NCCLS broth dilution assay described in Example 8, based on minimum inhibitory concentration (MIC) and minimum fungicidal concentration (MFC) as well as an agar diffusion plate assay measuring the zones of inhibition.
# MIC assay was determined using the broth dilution procedure described in Example 8 performed in microtiter wells with RPMI 1604 as the diluent. Serial dilutions of each test composition were made in RPMI diluent, and then 100 μl of undiluted test composition and of each diluted composition was added to a respective microtiter well. Conidial suspension (100 μl) was then added to each well and the plates were incubated at an incubation temperature of about 35° C. for an incubation period of 4 days dermatophytes, and 48 hours for yeasts. […], undiluted test composition was added to wells cut into the agar and allowed to diffuse. The MIC endpoint was the lowest concentration that inhibited 80% of fungal growth as compared to the growth control. The MFC endpoint was the lowest concentration to produce 1-2 colonies. The zone of inhibition size was measured (diameter of area remaining clear, i.e., lacking growth).
# [3] = system: T. mentagrophytes, (ATCC 24953); test: MFC assay by subculturing the microtiter wells from the MIC test; format: cell-based, Trichophyton mentagrophytes
# Method: Dermatophyte isolates are subcultured onto Potato Dextrose Agar (PDA) and incubated at a temperature of about 30° C. for a period of about 4 to about 5 days or until good conidiation is produced. T rubrum isolates are subcultured onto cereal (oatmeal) agar instead of PDA in order to induce conidia production. A suspension of conidia in sterile saline is made by gently swabbing the colony surface with a sterile swab. The suspension is allowed to settle for about 5 to about 10 minutes and the conidia is counted using a hemocytometer. Working suspensions of conidia are prepared in 10 ml RPMI 1604 (Difco Laboratories) medium to a final concentration of 1 to 3×10^3 CFU/ml. Yeast controls are subcultured onto PDA and incubated at a temperature of about 35° C. for about 48 hours. Yeast inocula are prepared to a final concentration of 0.5 to 2.5×10^3 CFU/ml. For MIC assay, each drug concentration well and growth control well is inoculated with 100 microliters of cell suspension, and the final volume in each microtiter well is 200 microliters. The dermatophyte plates are incubated at a temperature of about 35° C. for 4 days (yeast controls for 48 hours). […]
# MIC assay was determined using the broth dilution procedure described in Example 8 performed in microtiter wells with RPMI 1604 as the diluent. […] The zone of inhibition size was measured (diameter of area remaining clear, i.e., lacking growth).
# [4] = In vitro diffusion of terbinafine across a nail membrane (human nail clippings); format: in vitro ADME; details: applied as a 10% solution in ethanol
# [5] = Release/retention of terbinafine hydrochloride from treated human nail clippings in ethyl alcohol; format: in vitro ADME; details: FIG. 2
# Method: The terbinafine-treated nail clippings were then separately recovered from each test solution and rinsed with 10 mL of ethyl alcohol to remove antifungal liquid from the surface cavity. The rinsed nail clippings from each test were then separately immersed in another 5 mL portion of anhydrous ethyl alcohol to assess the rate of terbinafine release from the nail structure, by determining the concentration of terbinafine hydrochloride released as a function of time using the HPLC technique described above.
compound,measurement,setting,value
"CN(C/C=C/C#CC(C)(C)C)Cc1cccc2ccccc12 [9(G), terbinafine hydrochloride]",MIC,"[1]; Trichophyton mentagrophytes, ATCC24953, 96 h, 80% growth inhibition, 35° C., 4 days",0.03 µg/mL
same,Zone size (mm),[2]; hydrochloride,18 mm
same,MFC,"[3]; Trichophyton mentagrophytes, ATCC24953, lowest concentration to produce 1-2 colonies",0.125 µg/mL
same,fungicidal efficacy as judged from MFC assays,[3]; in words,substantially equivalent
"CN(C/C=C/C#CC(C)(C)C)Cc1cccc2ccccc12 [terbinafine, (E)-N-(6,6-dimethyl-2-hepten-4-ynyl)-N-methyl-1-naphthalene methanamine]",period to reach a concentration above the minimum inhibition concentration (MIC) for fungi across nail membrane,[4],about one
"CN(C/C=C/C#CC(C)(C)C)Cc1cccc2ccccc12 [9(F), terbinafine hydrochloride]",Zone size (mm),[2]; hydrochloride,80 mm
"CCCCCCCCCCCCOC(=O)C(C)N(C)C.Cl (stereo not drawn) [9(E), dodecyl-2-(N,N-dimethylamino) isopropionate hydrochloride]",efficacy as judged from MIC assays,[1]; in words,at most some weak efficacy
same,Zone size (mm),[2],Zero
CN(C/C=C/C#CC(C)(C)C)Cc1cccc2ccccc12 [terbinafine hydrochloride],period for amount of terbinafine hydrochloride retained in the nail to reach equilibrium,[5],about 10 hours
